This is an account of results in patent US8772509B2, “Indole compounds as positive allosteric modulators of the muscarinic receptor” (Vanderbilt University, priority 2010, dated 2014).

For the assay, the target named is T1, mAChR M1 (UniProt P08482).
T1 sequence (P08482 1-460): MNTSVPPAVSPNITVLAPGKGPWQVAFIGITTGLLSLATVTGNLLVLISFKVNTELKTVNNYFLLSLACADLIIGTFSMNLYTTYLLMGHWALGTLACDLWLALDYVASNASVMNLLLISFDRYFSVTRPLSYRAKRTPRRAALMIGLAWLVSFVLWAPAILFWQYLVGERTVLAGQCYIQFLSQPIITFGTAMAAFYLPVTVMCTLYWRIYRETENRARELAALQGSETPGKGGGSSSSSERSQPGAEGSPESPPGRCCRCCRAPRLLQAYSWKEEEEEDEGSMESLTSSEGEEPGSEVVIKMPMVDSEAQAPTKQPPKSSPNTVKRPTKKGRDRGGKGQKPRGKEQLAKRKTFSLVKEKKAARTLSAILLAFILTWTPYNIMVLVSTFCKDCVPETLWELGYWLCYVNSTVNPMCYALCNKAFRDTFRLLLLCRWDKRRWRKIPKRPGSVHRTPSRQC
In words: mAChR M1 cell-based functional assay (calcium mobilization, Fluo-4, FDSS). As to conditions: for Efficacy (% ACh maximum at 30 μM): maximal calcium flux response from curve fit or response at 30 μM compound, as % of the EC80 ACh response; for EC50: positive allosteric modulation of EC20 acetylcholine response, CHO-K1 cells expressing mAChR M1, read-out: Potency (EC50). Here is the method:
Chinese hamster ovary (CHO-K1) cells stably expressing rat (r)M1 were purchased from the American Type Culture Collection and cultured according to their indicated protocol. […] To make stable rM2, hM2, rM3, hM4, and rM4 cell lines for use in calcium mobilization assays, these cells also were stably transfected with a chimeric G-protein (Gqi5) (provided by B. R. Conklin, University of California, San Francisco) using Lipofectamine 2000. rM1, hM1, rM3, hM3, rM5, and hM5 cells were grown in Ham's F-12 medium containing 10% heat-inactivated fetal bovine serum (FBS), 20 mM HEPES, and 50 μg/mL G418 sulfate. rM2-Gqi5, hM2-Gqi5, and hM4-Gqi5 cells were grown in the same medium also containing 500 μg/mL Hygromycin B. Stable rM4-Gqi5 cells were grown in DMEM containing 10% heat-inactivated FBS, 20 mM HEPES, 400 μg/mL G418 sulfate, and 500 μg/mL Hygromycin B.
For high throughput measurement of agonist-evoked increases in intracellular calcium, CHO-K1 cells stably expressing muscarinic receptors were plated in growth medium lacking G418 and hygromycin at 15,000 cells/20 μL/well in Greiner 384-well black-walled, tissue culture (TC)-treated, clear-bottom plates (VWR). Cells were incubated overnight at 37° C. and 5% CO2. […] Compound master plates were formatted in an 11 point CRC format (1:3 dilutions) in 100% DMSO with a starting concentration of 10 mM using the BRAVO liquid handler (Agilent). Test compound CRCs were then transferred to daughter plates (240 nL) using the Echo acoustic plate reformatter (Labcyte, Sunnyvale, Calif.) and then diluted into assay buffer (40 μL) to a 2× stock using a Thermo Fisher Combi (Thermo Fisher Scientific, Waltham, Mass.).
Calcium flux was measured using the Functional Drug Screening System (FDSS) 6000 (Hamamatsu Corporation, Tokyo, Japan) as an increase in the fluorescent static ratio. Compounds were applied to cells (20 μL, 2×) using the automated system of the FDSS 6000 at 4 s into the 300 s protocol and the data were collected at 1 Hz. […] Agonist activity was analyzed as a concentration-dependent increase in calcium mobilization upon compound addition. Positive allosteric modulator activity was analyzed as a concentration-dependent increase in the EC20 acetylcholine response. Antagonist activity was analyzed as a concentration-dependent decrease in the EC80 acetylcholine response. Concentration-response curves were generated using a four-parameter logistical equation in XLfit curve fitting software (IDBS, Bridgewater, N.J.) for Excel (Microsoft, Redmond, Wash.) or Prism (GraphPad Software, Inc., San Diego, Calif.).
The calcium mobilization assay was also used to determine “efficacy”. In the context of the assays carried out for the data in Table I, “efficacy” (% ACh at 30 μM) is defined as the maximal response in the calcium flux as determined by the sigmoidal curve fit of the concentration response curve, or in the absence of an acceptable curve fit, the response recorded at 30 μM test compound, stated as a percentage of the response elicited by a concentration of Ach that induces approximately 80% of a maximal (i.e. saturating) ACh response.
(In general: Calcium flux is commonly read through the fluorescence of an indicator in the cells.)

Turning to `O=C(CS(=O)(=O)c1cn(Cc2cccc(Br)c2)c2cc(F)cc(F)c12)Nc1cccnn1` [compound 7, 2-((1-(3-bromobenzyl)-4,6-difluoro-1H-indol-3-yl)sulfonyl)-N-(pyridazin-3-yl)acetamide], the “Efficacy (% ACh maximum at 30 μM)” value is given as 63% and the EC50 (as a rule, the concentration that produces a half-maximal response) came out at 2.4 µM.

For `Cc1cc(NC(=O)CS(=O)(=O)c2cn(Cc3ccc(OC(F)(F)F)cc3)c3ccccc23)no1` [compound 57, N-(5-methyl-1,2-oxazol-3-yl)-2-(1-{[4-(trifluoromethoxy)phenyl]methyl}-1H-indole-3-sulfonyl)acetamide], the EC50 was > 10 µM.

Regarding `Cc1cc(NC(=O)CS(=O)(=O)c2cn(Cc3ccc(F)cc3F)c3ccccc23)no1` [compound 49, 2-{1-[(2,4-difluorophenyl)methyl]-1H-indole-3-sulfonyl}-N-(5-methyl-1,2-oxazol-3-yl)acetamide], the EC50 was > 10 µM.

For `Cc1cc(NC(=O)CS(=O)(=O)c2cn(Cc3ccc(Br)cc3F)c3ccccc23)no1` [compound 60, 2-{1-[(4-bromo-2-fluorophenyl)methyl]-1H-indole-3-sulfonyl}-N-(5-methyl-1,2-oxazol-3-yl)acetamide], the EC50 was > 10 µM.

On to `Cc1cc(NC(=O)C(Cc2ccc(F)cc2F)S(=O)(=O)c2cn(Cc3ccc(F)cc3F)c3ccccc23)no1` (centres unmarked) [compound 71, 3-(2,4-difluorophenyl)-2-{1-[(2,4-difluorophenyl)methyl]-1H-indole-3-sulfonyl}-N-(5-methyl-1,2-oxazol-3-yl)propanamide], for which the EC50 was > 10 µM.

On to `Cc1cc(NC(=O)CS(=O)(=O)c2cn(Cc3ccc(F)c(Cl)c3)c3ccccc23)no1` [compound 52, 2-{1-[(3-chloro-4-fluorophenyl)methyl]-1H-indole-3-sulfonyl}-N-(5-methyl-1,2-oxazol-3-yl)acetamide], for which the EC50 was > 10 µM.

Take `Cc1cc(NC(=O)C(Cc2cccc(Cl)c2)S(=O)(=O)c2cn(Cc3cccc(Cl)c3)c3ccccc23)no1` (centres unmarked) [compound 69, 3-(3-chlorophenyl)-2-{1-[(3-chlorophenyl)methyl]-1H-indole-3-sulfonyl}-N-(5-methyl-1,2-oxazol-3-yl)propanamide]: the EC50 is > 10 µM.

Regarding `O=C(CS(=O)(=O)c1cn(Cc2cccc(-c3cccnc3F)c2)c2cc(F)cc(F)c12)Nc1ccccn1` [compound 24, 2-((4,6-difluoro-1-(3-(2-fluoropyridin-3-yl)benzyl)-1H-indol-3-yl)sulfonyl)-N-(pyridin-2-yl)acetamide], the “Efficacy (% ACh maximum at 30 μM)” value is on record as 38% and the EC50 came to 4.4 µM.

In the case of `Cc1cc(NC(=O)C(C)S(=O)(=O)c2cn(Cc3cc(Br)ccc3F)c3ccccc23)no1` (centres unmarked) [compound 63, 2-{1-[(5-bromo-2-fluorophenyl)methyl]-1H-indole-3-sulfonyl}-N-(5-methyl-1,2-oxazol-3-yl)propanamide], the EC50 is > 10 µM.

Consider `Cc1cc(NC(=O)CS(=O)(=O)c2cn(Cc3cccc(C(F)(F)F)c3)c3ccccc23)no1` [compound 54, N-(5-methyl-1,2-oxazol-3-yl)-2-(1-{[3-(trifluoromethyl)phenyl]methyl}-1H-indole-3-sulfonyl)acetamide], for which the EC50 was > 10 µM.

For the compound `Cc1cc(NC(=O)C[S+]([O-])c2cn(Cc3cccc(Cl)c3)c3ccccc23)no1` (centres unmarked) [compound 29, 2-((1-(3-chlorobenzyl)-1H-indol-3-yl)sulfinyl)-N-(5-methylisoxazol-3-yl)acetamide], the “Efficacy (% ACh maximum at 30 μM)” value was found to be 93% and the EC50 amounted to 5.23 µM.

On to `O=C(CS(=O)(=O)c1cn(Cc2cccc(Br)c2)c2cc(F)cc(F)c12)Nc1cncnc1` [compound 37, 2-((1-(3-bromobenzyl)-4,6-difluoro-1H-indol-3-yl)sulfonyl)-N-(pyrimidin-5-yl)acetamide], for which the “Efficacy (% ACh maximum at 30 μM)” value is listed as 48% and the EC50 was > 10 µM.

Consider `Cc1cc(NC(=O)CS(=O)(=O)c2cn(Cc3cccc(Br)c3F)c3ccccc23)no1` [compound 62, 2-{1-[(3-bromo-2-fluorophenyl)methyl]-1H-indole-3-sulfonyl}-N-(5-methyl-1,2-oxazol-3-yl)acetamide], for which the EC50 was > 10 µM.

On to `Cc1cc(NC(=O)CS(=O)(=O)c2cn(Cc3cccc(Br)c3)c3ccccc23)no1` [compound 22, 2-((1-(3-bromobenzyl)-1H-indol-3-yl)sulfonyl)-N-(5-methylisoxazol-3-yl)acetamide], for which the “Efficacy (% ACh maximum at 30 μM)” value is 91% and the EC50 is 3.79 µM.

As to `Cc1cc(NC(=O)CS(=O)(=O)c2cn(Cc3ccc(F)c(Br)c3)c3ccccc23)no1` [compound 61, 2-{1-[(3-bromo-4-fluorophenyl)methyl]-1H-indole-3-sulfonyl}-N-(5-methyl-1,2-oxazol-3-yl)acetamide], the concentration giving a half-maximal response (EC50) was > 10 µM.

As to `Cc1cc(NC(=O)CSc2cn(Cc3cccc(Br)c3)c3ccccc23)no1` [compound 51, 2-({1-[(3-bromphenyl)methyl]-1H-indol-3-yl}sulfanyl)-N-(5-methyl-1,2-oxazol-3-yl)acetamide], the EC50 was > 10 µM.

Turning to `Cc1cc(NC(=O)CS(=O)(=O)c2cn(Cc3ccccc3F)c3ccccc23)no1` [compound 43, 2-{1-[(2-fluorophenyl)methyl]-1H-indole-3-sulfonyl}-N-(5-methyl-1,2-oxazol-3-yl)acetamide], the EC50 was > 10 µM.

As to `Cc1cc(NC(=O)CS(=O)(=O)c2cn(Cc3cccc(Cl)c3F)c3ccccc23)no1` [compound 26, 2-((1-(3-chloro-2-fluorobenzyl)-1H-indol-3-yl)sulfonyl)-N-(5-methylisoxazol-3-yl)acetamide], the “Efficacy (% ACh maximum at 30 μM)” value was found to be 56% and the EC50 was 5.1 µM.

Turning to `Cc1cc(NC(=O)CS(=O)(=O)c2cn(Cc3ccc(Cl)c(Cl)c3)c3ccccc23)no1` [compound 55, 2-{1-[(3,4-dichlorophenyl)methyl]-1H-indole-3-sulfonyl}-N-(5-methyl-1,2-oxazol-3-yl)acetamide], the EC50 is > 10 µM.

For `Cc1cc(NC(=O)CS(=O)(=O)c2cn(Cc3cc(-c4cn[nH]c4)ccc3F)c3ccccc23)no1` [compound 15, 2-((1-(2-fluoro-5-(1H-pyrazol-4-yl)benzyl)-1H-indol-3-yl)sulfonyl)-N-(5-methylisoxazol-3-yl)acetamide], the “Efficacy (% ACh maximum at 30 μM)” value was determined as 96% and the EC50 came out at 3.07 µM.

Take `Cc1cc(NC(=O)CS(=O)(=O)c2cn(Cc3cccc(-c4cn[nH]c4)c3)c3ccccc23)no1` [compound 5, 2-((1-(3-(1H-pyrazol-4-yl)benzyl)-1H-indol-3-yl)sulfonyl)-N-(5-methylisoxazol-3-yl)acetamide]: the “Efficacy (% ACh maximum at 30 μM)” value was 90% and the EC50 is 2.19 µM.

For `O=C(CS(=O)(=O)c1cn(Cc2cccc(-c3cccnc3Cl)c2)c2cc(F)cc(F)c12)Nc1ccccn1` [compound 11, 2-((1-(3-(2-chloropyridin-3-yl)benzyl)-4,6-difluoro-1H-indol-3-yl)sulfonyl)-N-(pyridin-2-yl)acetamide], the “Efficacy (% ACh maximum at 30 μM)” value is reported as 43% and the EC50 came out at 2.7 µM.

Regarding `COc1ccc(Cn2cc(S(=O)(=O)CC(=O)Nc3cc(C)on3)c3ccccc32)cc1` [compound 46, 2-{1-[(4-methoxyphenyl)methyl]-1H-indole-3-sulfonyl}-N-(5-methyl-1,2-oxazol-3-yl)acetamide], the EC50 was > 10 µM.
